Reference: US20250090699A1, “FAP TARGETING CYCLIC PEPTIDES AND CONJUGATES THEREOF” (Novartis AG, priority 2023, published 2025)
Starred links: 1 amine or outer side, 2 acyl side, 3 side chain; linkers in the order of their positions; H or OH if unused. Non-standard residues stand in square brackets, D forms with d. Residues, ends and D or L forms follow the SMILES beside them. Groups on a side chain read outwards from the residue. *: point of attachment. F(4amPEG2NHDOTA-Lu) = lutetium complex of (S)-2,2',2''-(10-(1-(4-(2-amino-2-carboxyethyl)phenyl)-3,12-dioxo-5,8-dioxa-2,11-diazatridecan-13-yl)-1,4,7,10-tetraazacyclododecane-1,4,7-triyl)triacetic acid (Phe with 4-aminomethyl-PEG2-DOTA-Lu), O=C([O-])CN1CCN(CC(=O)[O-])CCN(CC(=O)NCCOCCOCC(=O)NCc2ccc(C[C@H](N[*:1])C(=O)[*:2])cc2)CCN(CC(=O)[O-])CC1.[Lu+3]; F(4amPEG2NHDOTA-Ga) = gallium complex of (S)-2,2',2''-(10-(1-(4-(2-amino-2-carboxyethyl)phenyl)-3,12-dioxo-5,8-dioxa-2,11-diazatridecan-13-yl)-1,4,7,10-tetraazacyclododecane-1,4,7-triyl)triacetic acid (Phe with 4-aminomethyl-PEG2-DOTA-Ga), O=C([O-])CN1CCN(CC(=O)[O-])CCN(CC(=O)NCCOCCOCC(=O)NCc2ccc(C[C@H](N[*:1])C(=O)[*:2])cc2)CCN(CC(=O)[O-])CC1.[Ga+3]; K(COpipzaa) = N6-(4-(carboxymethyl)piperazine-1-carbonyl)-L-lysine, O=C(NCCCC[C@H](N[*:1])C(=O)[*:2])N1CCN(CC(=O)[*:3])CC1; X8 = O=C(O)CN1CCN(CC(=O)O)CCN(CC(=O)O)C(Cc2ccc(NC(=S)*)cc2)CN(CC(=O)O)CC1; hS(Pr) = O-propyl-L-homoserine, CCCOCC[C@H](N[*:1])C(=O)[*:2]; NOTA = O=C(O)CN1CCN(CC(=O)O)CCN(CC(=O)*)CC1; Phe(4-CH2NH2) = NCc1ccc(C[C@H](N)C(=O)O)cc1; Piperazinyl(4-CH2COOH) = O=C(O)CN1CCN(*)CC1; Nicotinoyl(6-F) = O=C(c1ccc(F)nc1)*; NMeF = CN[C@@H](Cc1ccccc1)C(=O)O; Aoc(2) = CCCCCC[C@H](N)C(=O)O; hSer = N[C@@H](CCO)C(=O)O; AEEA = NCCOCCOCC(=O)O; CO = O=C([*:1])[*:2]; Propyl = CCC*

Experiments:
[1] = target: T1, human FAP (Homo sapiens, UniProt Q12884); assay: Enzymatic FAP competition assay (Z-Gly-Pro-AMC fluorescence), human FAP; assay type: biochemical; details: read-out: h. FAP, Enz., IC50
T1 construct: the biotinylated His, Avi tag, human FAP (26-760, FAP-H82Q6); His; Avi tag (biotinylated); purchased AcroBiosystems FAP-H82Q6
T1 sequence (Q12884 26-760): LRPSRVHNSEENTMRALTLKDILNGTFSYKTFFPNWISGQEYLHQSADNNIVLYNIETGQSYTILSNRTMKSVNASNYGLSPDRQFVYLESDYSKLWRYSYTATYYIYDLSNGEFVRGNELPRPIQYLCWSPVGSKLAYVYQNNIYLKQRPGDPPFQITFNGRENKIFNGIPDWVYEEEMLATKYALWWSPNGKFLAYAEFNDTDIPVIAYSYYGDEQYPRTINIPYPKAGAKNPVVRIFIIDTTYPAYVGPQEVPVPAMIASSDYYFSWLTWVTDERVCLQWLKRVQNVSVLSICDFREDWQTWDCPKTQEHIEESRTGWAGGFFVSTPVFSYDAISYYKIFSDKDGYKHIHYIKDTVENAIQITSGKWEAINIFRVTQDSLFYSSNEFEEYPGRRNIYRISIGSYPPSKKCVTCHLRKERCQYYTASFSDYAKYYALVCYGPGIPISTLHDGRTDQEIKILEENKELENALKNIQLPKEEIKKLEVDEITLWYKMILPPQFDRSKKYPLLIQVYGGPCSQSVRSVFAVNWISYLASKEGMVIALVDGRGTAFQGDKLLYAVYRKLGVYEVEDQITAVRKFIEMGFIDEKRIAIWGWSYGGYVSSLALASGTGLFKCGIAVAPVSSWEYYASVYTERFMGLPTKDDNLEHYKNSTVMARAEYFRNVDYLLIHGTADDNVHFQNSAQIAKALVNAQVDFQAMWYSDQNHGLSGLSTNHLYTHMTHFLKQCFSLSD
Method in brief: (§1)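 IC50 values come from curve fitting of duplicate % inhibition data on AMC fluorescence (ex 380, em 460 nm) after 4 h at 22-24° C with 50 μM Z-Gly-Pro-AMC. Beforehand, peptides up to 1 μM (14 levels) sat 24 h with 0.01 nM human (26-760) or mouse (26-761) tagged FAP in phosphate buffer pH 7.5, NaCl, Tween20, 1% DMSO.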

[2] = target: T2, mouse FAP (Mus musculus, UniProt P97321); assay: Surface plasmon resonance (SPR) for peptide affinity, mouse FAP; assay type: binding
T2 construct: biotinylated His, Avi tag, mouse FAP (26-761, FAP-M82Q5); His; Avi tag (biotinylated); purchased AcroBiosystems FAP-M82Q5
T2 sequence (P97321 26-761): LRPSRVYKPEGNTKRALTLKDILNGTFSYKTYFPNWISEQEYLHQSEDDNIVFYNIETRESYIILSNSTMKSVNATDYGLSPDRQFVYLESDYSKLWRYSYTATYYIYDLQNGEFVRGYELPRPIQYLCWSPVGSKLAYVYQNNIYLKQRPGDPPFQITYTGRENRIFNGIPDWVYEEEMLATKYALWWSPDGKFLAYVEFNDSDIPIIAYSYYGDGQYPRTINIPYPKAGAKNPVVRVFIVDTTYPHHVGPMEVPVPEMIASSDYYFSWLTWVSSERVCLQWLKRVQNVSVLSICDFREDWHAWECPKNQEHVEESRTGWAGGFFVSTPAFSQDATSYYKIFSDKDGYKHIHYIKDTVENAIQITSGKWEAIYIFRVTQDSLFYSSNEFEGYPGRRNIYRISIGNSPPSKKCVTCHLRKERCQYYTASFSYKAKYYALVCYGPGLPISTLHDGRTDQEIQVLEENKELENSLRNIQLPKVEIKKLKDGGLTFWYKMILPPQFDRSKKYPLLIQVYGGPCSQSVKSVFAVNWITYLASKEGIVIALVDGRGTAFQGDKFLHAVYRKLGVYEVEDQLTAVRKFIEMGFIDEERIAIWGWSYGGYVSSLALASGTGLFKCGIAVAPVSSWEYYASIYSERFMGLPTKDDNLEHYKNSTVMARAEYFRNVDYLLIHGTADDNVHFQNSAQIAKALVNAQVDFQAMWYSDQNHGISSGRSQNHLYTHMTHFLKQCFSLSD
Method in brief: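 KD values come from a 1:1 kinetic fit of single-cycle SPR data: 8 peptide concentrations, 25 °C, 30 μL/min, HEPES-buffered saline pH 7.6 with 2% DMSO. Targets were His/Avi-tagged human (26-760) or mouse (26-761) FAP, amine-coupled to CM5 or held on a CAPture chip.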

[3] = target: T2, mouse FAP; assay: Enzymatic FAP competition assay (Z-Gly-Pro-AMC fluorescence), mouse FAP; assay type: biochemical; details: read-out: m. FAP, Enz., IC50
Method in brief: as §1

Row | Compound | IC50 [1] [nM] | Kd [2] [nM] | IC50 [3] [nM]
1 | CCCOCC[C@@H]1NC(=O)[C@H](Cc2ccc(CNC(=O)COCCOCCNC(=S)Nc3ccc(CC4CN(CC(=O)O)CCN(CC(=O)O)CCN(CC(=O)O)CCN4CC(=O)O)cc3)cc2)NC(=O)[C@H](Cc2ccccc2)N(C)C(=O)CNC(=O)CNC(=O)[C@H]2CCCN2C(=O)[C@H](CC(=O)O)NC(=O)[C@H](CCCCNC(=O)N2CCN(CC(=O)O)CC2)NC(=O)CNC(=O)[C@H](Cc2c[nH]c3ccccc23)NC1=O (stereo partly drawn) [Example B35, Gly-Gly-NMePhe-F(4amPEG2NH-p-SCN-DOTA-hS(Pr)-Trp-Gly-K(COpipzaa)-Asp-D-Pro] (cyclo(D[dP]GG[NMeF][Phe(4-CH2NH2)]([AEEA-X8])[hSer](Propyl)WGK([CO-Piperazinyl(4-CH2COOH)]))) | 0.021 | 0.059 | 0.055
2 | CCCCCC[C@@H]1NC(=O)[C@H](Cc2ccc(CNC(=O)COCCOCCNC(=S)Nc3ccc(CC4CN(CC(=O)O)CCN(CC(=O)O)CCN(CC(=O)O)CCN4CC(=O)O)cc3)cc2)NC(=O)[C@H](Cc2ccccc2)N(C)C(=O)CNC(=O)CNC(=O)[C@H]2CCCN2C(=O)[C@H](CC(=O)O)NC(=O)[C@H](CCCCNC(=O)N2CCN(CC(=O)O)CC2)NC(=O)CNC(=O)[C@H](Cc2c[nH]c3ccccc23)NC1=O (stereo partly drawn) [Example B37, Gly-Gly-NMePhe-F(4amPEG2NH-p-SCN-DOTA-Aoc-Trp-Gly-K(COpipzaa)-Asp-D-Pro] | 0.017 | < 0.022 | 0.042
3 | CCCCCC[C@@H]1NC(=O)[C@H](Cc2ccc(CNC(=O)COCCOCCNC(=O)CCC(C(=O)O)N3CCN(CC(=O)O)CCN(CC(=O)O)CC3)cc2)NC(=O)[C@H](Cc2ccccc2)N(C)C(=O)CNC(=O)CNC(=O)[C@H]2CCCN2C(=O)[C@H](CC(=O)O)NC(=O)[C@H](CCCCNC(=O)N2CCN(CC(=O)O)CC2)NC(=O)CNC(=O)[C@H](Cc2c[nH]c3ccccc23)NC1=O (stereo partly drawn) [Example B38, Gly-Gly-NMePhe-F(4amPEG2NHNODAGA)-Aoc-Trp-Gly-K(COpipzaa)-Asp-D-Pro] | 0.031 | < 0.076 | 0.073
4 | CCCCCC[C@@H]1NC(=O)[C@H](Cc2ccc(CNC(=O)COCCOCCNC(=O)CN3CCN(CC(=O)O)CCN(CC(=O)O)CC3)cc2)NC(=O)[C@H](Cc2ccccc2)N(C)C(=O)CNC(=O)CNC(=O)[C@H]2CCCN2C(=O)[C@H](CC(=O)O)NC(=O)[C@H](CCCCNC(=O)N2CCN(CC(=O)O)CC2)NC(=O)CNC(=O)[C@H](Cc2c[nH]c3ccccc23)NC1=O [Example B40, Gly-Gly-NMePhe-F(4amPEG2NHNOTA)-Aoc-Trp-Gly-K(COpipzaa)-Asp-D-Pro] (cyclo(GG[NMeF][Phe(4-CH2NH2)]([AEEA-NOTA])[Aoc(2)]WGK([CO-Piperazinyl(4-CH2COOH)])D[dP])) | 0.006 | < 0.024 | 0.012

Second part, the compound after the results:

Row | IC50 [1] [nM] | Kd [2] [nM] | IC50 [3] [nM] | Compound
5 | 0.006 | < 0.014 | 0.022 | CCCCCC[C@@H]1NC(=O)[C@H](Cc2ccc(CNC(=O)COCCOCCNC(=O)c3ccc(F)nc3)cc2)NC(=O)[C@H](Cc2ccccc2)N(C)C(=O)CNC(=O)CNC(=O)[C@H]2CCCN2C(=O)[C@H](CC(=O)O)NC(=O)[C@H](CCCCNC(=O)N2CCN(CC(=O)O)CC2)NC(=O)CNC(=O)[C@H](Cc2c[nH]c3ccccc23)NC1=O [Example C55, Gly-Gly-NMePhe-F(4amPEG2NHCOPy3(4F))-Aoc-Trp-Gly-K(COpipzaa)-Asp-D-Pro] (cyclo([Aoc(2)]WGK([CO-Piperazinyl(4-CH2COOH)])D[dP]GG[NMeF][Phe(4-CH2NH2)]([AEEA-Nicotinoyl(6-F)])))
6 | 0.014 | < 0.068 | 0.034 | Glu-Gly-NMe3PyA-F(4amPEG2NHDOTA-Lu)-hS(Pr)-W7N-Gly-K(COpipzaa)-Asp-D-Pro [Example C7]
7 | 0.019 | < 0.023 | 0.06 | Glu-Gly-NMePhe-F(4amPEG2NHDOTA-Ga)-hS(Pr)-Trp-Gly-K(COpipzaa)-Asp-D-Pro (cyclo(EG[NMeF][F(4amPEG2NHDOTA-Ga)][hS(Pr)]WG[K(COpipzaa)]D[dP]); also: Ga complex of DOTA) [Example C45]
8 | 0.019 | < 0.084 | 0.049 | Glu-Gly-NMePhe-F(4amPEG2NHDOTA-Lu)-hS(Pr)-Trp-Gly-K(COpipzaa)-Asp-D-Pro (cyclo(EG[NMeF][F(4amPEG2NHDOTA-Lu)][hS(Pr)]WG[K(COpipzaa)]D[dP]); also: Lu complex of DOTA) [Example C5]
